Test results reported in DBAASP.
Values after ≈ are worked out from the molar mass of the structure shown.

How the values were obtained:
Experiment in all cases: ≥ marks a high value that may be exact or a test limit, other limits are often not marked, values filed in µg/mL are converted to µM
[1] = tested on: Staphylococcus aureus
[2] = tested on: Bacillus subtilis 168
[3] = tested on: Pseudomonas aeruginosa
[4] = tested on: Escherichia coli B
[5] = tested on: Staphylococcus aureus ATCC 2592
[6] = tested on: Escherichia coli ATCC 25922
[7] = tested on: Bacillus subtilis
[8] = tested on: Candida albicans ATCC 2002
[9] = tested on: Staphylococcus aureus MR
[10] = tested on: Escherichia coli

Row | SMILES | MIC [1] [µM] | MIC [2] [µM] | MIC [3] [µM] | MIC [4] [µM] | MIC [5] [µM] | MIC [6] [µM] | MIC [7] [µM] | MIC [8] [µM] | MIC [9] [µM] | MIC [10] [µM]
1 | CC[C@H](C)[C@H](NC(=O)[C@H](CCCCN)NC(=O)[C@H](CCCCN)NC(=O)[C@H](Cc1c[nH]c2ccccc12)NC(=O)[C@H](CC(N)=O)NC(=O)[C@@H](N)C(C)C)C(=O)N[C@@H](CC(C)C)C(=O)N1CCC[C@H]1C(=O)N[C@@H](CCCCN)C(=O)N[C@H](C(=O)N[C@H](C(=O)N[C@@H](CCCCN)C(=O)N[C@H](C(=O)N[C@@H](C)C(=O)N[C@@H](CCCCN)C(N)=O)C(C)C)[C@@H](C)CC)[C@@H](C)CC [VNWKKILPKIIKVAK] | 80 (≈ 142 µg/mL) | 0.7 (≈ 1.24 µg/mL) | 100 (≈ 178 µg/mL) | 2.5 (≈ 4.44 µg/mL) |  |  |  |  |  | 
2 | CC[C@H](C)[C@H](NC(=O)[C@H](CCCCN)NC(=O)[C@H](C)NC(=O)[C@H](CC(C)C)NC(=O)[C@@H](NC(=O)[C@H](CCCCN)NC(=O)[C@H](CCCCN)NC(=O)[C@H](Cc1c[nH]c2ccccc12)NC(=O)[C@H](CC(N)=O)NC(=O)[C@@H](N)C(C)C)C(C)C)C(=O)N[C@H](C(=O)N[C@@H](CCCCN)C(=O)N[C@H](C(=O)N[C@@H](C)C(=O)N[C@@H](CCCCN)C(N)=O)C(C)C)[C@@H](C)CC [VNWKKVLAKIIKVAK] | 7.2 (≈ 12.5 µg/mL) | 0.6 (≈ 1.04 µg/mL) | 26.9 (≈ 46.7 µg/mL) | 0.7 (≈ 1.22 µg/mL) |  |  |  |  |  | 
3 | CC[C@H](C)[C@@H]1NC(=O)[C@H](CCCCN)NC(=O)[C@@H](NC(=O)[C@H](CCCCN)NC(=O)[C@H](CC(C)C)NC(=O)[C@@H](NC(=O)[C@H](CC(=O)O)NC(=O)[C@H](CC(C)C)NC(=O)[C@H](CC(C)C)NC(=O)[C@H](CCC(N)=O)NC(=O)CNC(=O)[C@H](C)NC(=O)[C@@H](NC(=O)[C@H](CCCCN)NC(=O)[C@H](CCCCN)NC(=O)[C@H](CC(C)C)NC(=O)CNC(=O)[C@H](CCC(=O)O)NC(=O)[C@H](CCCCN)NC(=O)[C@@H](NC(=O)[C@H](CO)NC(=O)[C@H](CC(=O)O)NC(=O)[C@H](CC(C)C)NC(=O)[C@H](CC(C)C)NC(=O)CN)C(C)C)C(C)C)[C@@H](C)O)CSSC[C@@H](C(=O)N[C@H](C(=O)N2CCC[C@H]2C(=O)N[C@@H](C)C(=O)O)[C@@H](C)O)NC(=O)CNC(=O)[C@H](CO)NC1=O [GLLDSVKEGLKKVAGQLLDTLKCKISGCTPA] |  |  |  |  | 1.98 (≈ 6.3 µg/mL) | 1.98 (≈ 6.3 µg/mL) | 7.84 (≈ 25 µg/mL) | 3.92 (≈ 12.5 µg/mL) |  | 
4 | CC[C@H](C)[C@H](NC(=O)[C@H](CC(C)C)NC(=O)[C@H](CCCCN)NC(=O)CNC(=O)[C@H](CC(C)C)NC(=O)[C@@H](NC(=O)[C@H](CCCCN)NC(=O)[C@H](CO)NC(=O)[C@H](Cc1c[nH]c2ccccc12)NC(=O)[C@H](CCCCN)NC(=O)CN)[C@@H](C)CC)C(=O)N[C@@H](CCCN=C(N)N)C(N)=O [GKWSKILGKLIR] | 21.7 (≈ 30.3 µg/mL) | 1.7 (≈ 2.38 µg/mL) | 28.3 (≈ 39.6 µg/mL) | 2.3 (≈ 3.21 µg/mL) |  |  |  |  |  | 
5 | CC[C@H](C)[C@H](NC(=O)[C@H](C)NC(=O)[C@H](CC(C)C)NC(=O)[C@H](CC(C)C)NC(=O)[C@H](CC(C)C)NC(=O)[C@H](C)N)C(=O)N[C@@H](CCCN=C(N)N)C(=O)N[C@@H](CCCCN)C(=O)N[C@@H](CCCN=C(N)N)C(N)=O [ALLLAIRKR] | 3.8 (≈ 4 µg/mL) |  | 3.8 (≈ 4 µg/mL) |  |  |  |  |  | ≥ 38 | 5.7 (≈ 5.99 µg/mL)
6 | CC[C@H](C)[C@H](NC(=O)[C@H](CCC(N)=O)NC(=O)[C@H](CCCCN)NC(=O)CNC(=O)[C@H](CC(C)C)NC(=O)[C@H](CCC(N)=O)NC(=O)[C@@H]1CCCN1C(=O)[C@H](CC(C)C)NC(=O)[C@H](CCCCN)NC(=O)[C@H](C)NC(=O)[C@H](CCC(=O)O)NC(=O)[C@H](CCCCN)NC(=O)[C@@H](NC(=O)[C@H](CCSC)NC(=O)[C@@H](NC(=O)[C@@H](NC(=O)[C@@H](NC(=O)[C@@H](N)CO)[C@@H](C)CC)[C@@H](C)CC)[C@@H](C)O)[C@@H](C)O)C(=O)N[C@@H](C)C(=O)N[C@H]1CSSC[C@@H](C(=O)O)NC(=O)[C@H]([C@@H](C)O)NC(=O)[C@H](CC(N)=O)NC(=O)[C@H](Cc2ccc(O)cc2)NC(=O)[C@H](CC(C)C)NC(=O)[C@H](CCCN=C(N)N)NC1=O [SIITMTKEAKLPQLGKQIACRLYNTC] |  |  |  |  | 10.3 (≈ 30 µg/mL) | 41 (≈ 120 µg/mL) | ≥ 41 | 20.5 (≈ 60 µg/mL) |  | 
